Several values for one entry are separate records, joined by “and”; a condition that tells them apart may be missing. Identical values can stand only once. Toxic doses and inconclusive results are not listed. No stated cut-off is given here; in the data, active means T/C of 150% or more; inactive means T/C below 125%.
Test system: L1210 leukemia ip in BDF1 mice, survival T/C
Experiment: NCI In Vivo Anticancer Drug Screen. Data for tumor model L1210 Leukemia (intraperitoneal) in B6D2F1 (BDF1) mice
Conditions: endpoint: mean survival time, higher = longer survival
Method in brief: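 Transplantable tumor model; survival measured in treated vs vehicle control mice. Value = treated/control.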

[1] = dose: 100.0 mg/kg/injection, schedule: Q01DX009 (ip), vehicle: Klucel (hydroxypropylcellulose) (HPC)
[2] = dose: 100.0 mg/kg/injection, schedule: Q04DX003 (ip), vehicle: Klucel (hydroxypropylcellulose) (HPC)
[3] = dose: 200.0 mg/kg/injection, schedule: Q01DX009 (ip), vehicle: Klucel (hydroxypropylcellulose) (HPC)
[4] = dose: 200.0 mg/kg/injection, schedule: Q04DX003 (ip), vehicle: Klucel (hydroxypropylcellulose) (HPC)
[5] = dose: 400.0 mg/kg/injection, schedule: Q01DX009 (ip), vehicle: Klucel (hydroxypropylcellulose) (HPC)
[6] = dose: 400.0 mg/kg/injection, schedule: Q04DX002 (ip), vehicle: saline with Tween-80
[7] = dose: 100.0 mg/kg/injection, schedule: Q01DX009 (ip), vehicle: saline with Tween-80
[8] = dose: 100.0 mg/kg/injection, schedule: Q04DX002 (ip), vehicle: Klucel (hydroxypropylcellulose) (HPC)
[9] = dose: 200.0 mg/kg/injection, schedule: Q04DX002 (ip), vehicle: Klucel (hydroxypropylcellulose) (HPC)
[10] = dose: 400.0 mg/kg/injection, schedule: Q04DX002 (ip), vehicle: Klucel (hydroxypropylcellulose) (HPC)
[11] = dose: 100.0 mg/kg/injection, schedule: Q04DX003 (ip), vehicle: saline
[12] = dose: 200.0 mg/kg/injection, schedule: Q04DX003 (ip), vehicle: saline
[13] = dose: 400.0 mg/kg/injection, schedule: Q04DX003 (ip), vehicle: saline
[14] = dose: 100.0 mg/kg/injection, schedule: Q01DX001 (ip), vehicle: saline
[15] = dose: 200.0 mg/kg/injection, schedule: Q01DX001 (ip), vehicle: saline
[16] = dose: 400.0 mg/kg/injection, schedule: Q01DX001 (ip), vehicle: saline
[17] = dose: 100.0 mg/kg/injection, schedule: Q01DX001 (ip), vehicle: carboxymethylcellulose (CMC)
[18] = dose: 200.0 mg/kg/injection, schedule: Q01DX001 (ip), vehicle: carboxymethylcellulose (CMC)
[19] = dose: 400.0 mg/kg/injection, schedule: Q01DX001 (ip), vehicle: carboxymethylcellulose (CMC)

Measured: T/C

Clc1ccc(N=Nc2ccccc2)cc1
inactive: [1] 98 % of control | [2] 95 % of control | [3] 91 % of control | [4] 101 % of control | [5] 96 % of control | dose: 400.0 mg/kg/injection, schedule: Q04DX003 (ip), vehicle: Klucel (hydroxypropylcellulose) (HPC) 105 % of control

OCC1OCOC2C(CO)OCOC12 (centres undefined)
inactive: dose: 25.6 mg/kg/injection, schedule: Q04DX002 (ip), vehicle: saline with Tween-80 104 % of control | dose: 64.0 mg/kg/injection, schedule: Q04DX002 (ip), vehicle: saline with Tween-80 101 % of control | dose: 160.0 mg/kg/injection, schedule: Q04DX002 (ip), vehicle: saline with Tween-80 101 % of control | [6] 96 % of control

C/C(=N\N=C(N)N)c1cccs1
inactive: dose: 7.0 mg/kg/injection, schedule: Q01DX Z (oral), vehicle: carboxymethylcellulose (CMC) 101 % of control | dose: 15.0 mg/kg/injection, schedule: Q01DX Z (oral), vehicle: carboxymethylcellulose (CMC) 91 % of control

CCOc1ccc(Cl)cc1
inactive: dose: 75.0 mg/kg/injection, schedule: Q01DX009 (ip), vehicle: Klucel (hydroxypropylcellulose) (HPC) 117 % of control | [7] 108 % of control | [8] 100 % of control | dose: 150.0 mg/kg/injection, schedule: Q01DX009 (ip), vehicle: Klucel (hydroxypropylcellulose) (HPC) 93 % of control | dose: 200.0 mg/kg/injection, schedule: Q01DX009 (ip), vehicle: saline with Tween-80 106 % of control | [9] 103 % of control | dose: 300.0 mg/kg/injection, schedule: Q01DX009 (ip), vehicle: Klucel (hydroxypropylcellulose) (HPC) 96 % of control | [10] 92 % of control

O=C(O)Cc1cccnc1
inactive: dose: 100.0 mg/kg/injection, schedule: Q01DX009 (ip), vehicle: saline 102 % of control | [11] 101 % of control | dose: 200.0 mg/kg/injection, schedule: Q01DX009 (ip), vehicle: saline 100 % of control | [12] 104 % of control | dose: 400.0 mg/kg/injection, schedule: Q01DX009 (ip), vehicle: saline 89 % of control | [13] 95 % of control

O=C(/C=C/c1ccccc1)CC(=O)c1ccccc1.O=C(/C=C/c1ccccc1)CC(=O)c1ccccc1.[Cu]
inactive: dose: 50.0 mg/kg/injection, schedule: Q01DX001 (ip), vehicle: saline 94 % of control | [14] 91 % of control | [15] 91 % of control | [16] 97 % of control

N#Cc1ccccc1CNc1ccccc1
inactive: dose: 100.0 mg/kg/injection, schedule: Q01DX001 (ip), vehicle: Klucel (hydroxypropylcellulose) (HPC) 94 % of control | dose: 200.0 mg/kg/injection, schedule: Q01DX001 (ip), vehicle: Klucel (hydroxypropylcellulose) (HPC) 96 % of control | dose: 400.0 mg/kg/injection, schedule: Q01DX001 (ip), vehicle: Klucel (hydroxypropylcellulose) (HPC) 96 % of control

O=Cc1nccn1Cc1ccccc1
inactive: dose: 25.0 mg/kg/injection, schedule: Q01DX009 (ip), vehicle: saline with Tween-80 93 % of control | dose: 50.0 mg/kg/injection, schedule: Q01DX009 (ip), vehicle: saline with Tween-80 98 % of control | [7] 100 % of control

CCOC(=O)NC(NC(=O)OCC)c1ccco1
inactive: dose: 100.0 mg/kg/injection, schedule: Q01DX001 (ip), vehicle: other 98 % of control | dose: 200.0 mg/kg/injection, schedule: Q01DX001 (ip), vehicle: other 98 % of control | dose: 400.0 mg/kg/injection, schedule: Q01DX001 (ip), vehicle: other 89 % of control

O=C(CCCCCC(=O)NO)NO
inactive: dose: 100.0 mg/kg/injection, schedule: Q04DX002 (ip), vehicle: saline with Tween-80 93 % of control | dose: 100.0 mg/kg/injection, schedule: Q04DX002 (ip), vehicle: saline 100 % of control | dose: 200.0 mg/kg/injection, schedule: Q04DX002 (ip), vehicle: saline with Tween-80 97 % of control | dose: 200.0 mg/kg/injection, schedule: Q04DX002 (ip), vehicle: saline 93 % of control | [6] 97 % of control | dose: 400.0 mg/kg/injection, schedule: Q04DX002 (ip), vehicle: saline 93 % of control

NNC(=O)c1ccc(-c2ccc[nH]2)[nH]1
inactive: dose: 75.0 mg/kg/injection, schedule: Q01DX001 (ip), vehicle: saline 108 % of control | dose: 150.0 mg/kg/injection, schedule: Q01DX001 (ip), vehicle: saline 92 % of control

CCOC(=O)c1ccc(NCCCc2c(C)nc(N)[nH]c2=O)cc1
inactive: dose: 75.0 mg/kg/injection, schedule: Q01DX001 (ip), vehicle: saline with Tween-80 92 % of control | dose: 150.0 mg/kg/injection, schedule: Q01DX001 (ip), vehicle: saline with Tween-80 87 % of control | dose: 300.0 mg/kg/injection, schedule: Q01DX001 (ip), vehicle: saline with Tween-80 90 % of control

NC(=O)c1ccccc1NC(=O)Nc1ccccc1C(F)(F)F
inactive: [1] 98 % of control | [3] 98 % of control | [5] 100 % of control

O=[N+]([O-])c1ccccc1Nc1ccccc1
inactive: [17] 91 % of control | [18] 89 % of control | [19] 91 % of control

O=C(O)C1CO1 (centres undefined)
inactive: dose: 100.0 mg/kg/injection, schedule: Q01DX001 (ip), vehicle: acetone 102 % of control | dose: 200.0 mg/kg/injection, schedule: Q01DX001 (ip), vehicle: acetone 98 % of control | dose: 400.0 mg/kg/injection, schedule: Q01DX001 (ip), vehicle: acetone 101 % of control

COC1=C(N=[N+]=[N-])C(=O)c2ccccc2C1=O
inactive: dose: 6.25 mg/kg/injection, schedule: Q04DX002 (ip), vehicle: saline with Tween-80 104 % of control | dose: 12.5 mg/kg/injection, schedule: Q04DX002 (ip), vehicle: saline with Tween-80 96 % of control

Cc1cc(Cl)c(Cl)cc1NC(=O)Nc1ccccc1F
inactive: dose: 100.0 mg/kg/injection, schedule: Q01DX009 (ip), vehicle: other 89 % of control and 92 % of control | dose: 200.0 mg/kg/injection, schedule: Q01DX009 (ip), vehicle: other 89 % of control | dose: 400.0 mg/kg/injection, schedule: Q01DX009 (ip), vehicle: other 98 % of control and 90 % of control

CN1COc2c(nc(-c3ccccc3)[nH]c2=O)C1
inactive: dose: 50.0 mg/kg/injection, schedule: Q01DX001 (ip), vehicle: carboxymethylcellulose (CMC) 101 % of control | [17] 98 % of control | [18] 98 % of control | [19] 95 % of control

O=C(O)CCC1NC(=O)NC1=O (centres undefined)
inactive: [14] 96 % of control | [15] 96 % of control | [16] 91 % of control

CCC1=C(c2ccccc2)OS(=O)(=O)NC1=O
inactive: [11] 97 % of control | [12] 97 % of control | [13] 109 % of control

Cc1nn(C)c(C#N)c1[N+](=O)[O-]
inactive: [2] 98 % of control | [4] 100 % of control

CN/C([S-])=N/N=C/C(=N/N=C(\[S-])NC)c1ccc(-c2ccccc2)cc1.[Cu+2]
inactive: [8] 106 % of control | [9] 95 % of control | [10] 100 % of control

From PubChem BioAssay AID248 (DTP/NCI, 2004)
